The target of series [1] is T1, human ETA receptors (Homo sapiens, UniProt P25101).
T1 construct: endogenous in cells; host or cells: TE 671 cells (ATCC HTB 139), membrane preparation
T1 sequence (P25101 21-427): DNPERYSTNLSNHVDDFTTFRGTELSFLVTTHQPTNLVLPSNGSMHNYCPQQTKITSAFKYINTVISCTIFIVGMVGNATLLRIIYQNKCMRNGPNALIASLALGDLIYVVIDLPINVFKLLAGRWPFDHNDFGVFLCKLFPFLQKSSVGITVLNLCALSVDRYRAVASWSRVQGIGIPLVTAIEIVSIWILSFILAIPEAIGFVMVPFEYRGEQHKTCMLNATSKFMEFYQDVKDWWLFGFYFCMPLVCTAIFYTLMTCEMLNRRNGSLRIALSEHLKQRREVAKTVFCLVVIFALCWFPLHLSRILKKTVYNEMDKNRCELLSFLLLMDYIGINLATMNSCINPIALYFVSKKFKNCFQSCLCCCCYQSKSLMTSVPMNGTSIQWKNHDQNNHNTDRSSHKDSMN
The experiment in a line: Endothelin binding inhibition, Binding Test #1: competition with 125I-ET-1 for ETA receptors on TE 671 cell membranes.

Series [2] deals with T2, human ETB receptor (Homo sapiens, UniProt P24530).
T2 construct: expressed in transfected cells; host or cells: COS7 cells
T2 sequence (P24530 27-442): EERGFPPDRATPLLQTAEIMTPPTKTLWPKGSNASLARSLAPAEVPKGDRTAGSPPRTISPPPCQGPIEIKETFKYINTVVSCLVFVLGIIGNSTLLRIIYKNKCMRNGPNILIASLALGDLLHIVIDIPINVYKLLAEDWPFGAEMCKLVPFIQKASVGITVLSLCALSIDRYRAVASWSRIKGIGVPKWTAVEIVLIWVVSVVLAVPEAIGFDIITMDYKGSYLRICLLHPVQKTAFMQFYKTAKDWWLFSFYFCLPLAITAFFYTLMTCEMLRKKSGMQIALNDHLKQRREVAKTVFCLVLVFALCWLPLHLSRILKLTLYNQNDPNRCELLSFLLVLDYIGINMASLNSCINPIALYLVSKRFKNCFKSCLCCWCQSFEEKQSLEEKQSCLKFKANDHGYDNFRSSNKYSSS
The experiment in a line: Endothelin binding inhibition, Binding Test #2: competition with 125I-ET-1 for ETB receptors on transfected COS7 cell membranes. The following applies: for inhibition at 100 µM: read-out: ETB % inhibition @ 100 μM, @ 100 μM, incubation at 24° C. In short, it runs like this:
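Membranes from COS7 cells transfected with human ETB receptor, prepared in HEPES pH 7.4 with aprotinin, MnCl2/DNase treatment at 37° C for 30 min. Test compounds compete with 125I-labeled ET-1 for receptor binding; membrane used at 1 μg/50 μL binding buffer.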

Series [3] is described as follows: Papp. Format: in vitro ADME. The conditions noted are these: not told.
Series [4] can be described thus: Oral half-life and peak plasma levels. The class given is in vivo. The conditions noted are these: for POt½ in Rat: oral; for Peak Plasma Levels: rat, in vivo. The text has this:
As used herein, bioavailability refers to the rate and extent of absorption. Methods for determining bioavailability are well known to those of skill in the art. For example, bioavailability of any of the compounds described herein can be determined empirically by administration of the compound to an animal, followed by taking blood samples over time and measuring the blood concentration of the compound. In vivo half life (t1/2) is defined as the time it takes for the concentration of the compound in the blood to be reduced by one-half. Estimations of the area under the curve for intravenous administration can be used to estimate the area under the curve for oral administration, ylelding bioavailability data. See, e.g., Milo Gibal (1991) Biopharmaceutics and Pharmacology, 4th edition (Lea and Sediger).
Table 2 lists oral half-life, bioavailability, and in vivo activity of selected exemplary compounds. The in vivo activity was measured in a pulmonary hypertension model and is a measure of the activity of the compounds at selected dosages.

Setting [5] is: incubation at 24° C. (values marked †).
The mark [6] stands for this setting: incubation at 4° C. (values without †).

In general, IC50 refers to the concentration that gives 50% inhibition. A high value points to weaker potency. The term Papp denotes a coefficient for how fast a substance crosses the barrier. The low end stands for poor permeation, the high end for ready permeation. For the molecule `Cc1cc(C)c(NC(=O)c2sccc2S(=O)(=O)Nc2onc(C)c2Cl)c(C)c1CC(=O)O` [N-(4-chloro-3-methyl-5-isoxazolyl)-2-(3-carboxymethyl-2,4,6-trimethylphenylaminocarbonyl)thiophene-3-sulfonamide], the results for the IC50 in series [1] (setting [5]) and in series [2] (setting [5]) were 1.77 nM and 106000 nM, respectively. Moreover, the Papp in series [3] came to 1.1 ×10⁻⁶ cm/s.
For the molecule `Cc1cc(C)c(S(N)(=O)=O)c(C)c1NC(=O)c1sccc1S(=O)(=O)Nc1onc(C)c1Cl` [N-(4-chloro-3-methyl-5-isoxazolyl)-2-(3-sulfamoyl-2,4,6-trimethylphenylaminocarbonyl)thiophene-3-sulfonamide], the “POt½ in Rat” value in series [4] amounted to 3.4 h. In addition, the “Peak Plasma Levels” value in series [4] amounted to 2.8 µg/mL. Further, the IC50 in series [1] (setting [5]) amounted to 0.92 nM; in series [2] (setting [5]), 25500 nM.
With `Cc1cc(C)c(NC(=O)c2sccc2S(=O)(=O)Nc2onc(C)c2C)c(C)c1CC#N` [N-(3,4-dimethyl-5-isoxazolyl)-2-(3-cyanomethyl-2,4,6-trimethylphenylaminocarbonyl)thiophene-3-sulfonamide], in series [4], the “POt½ in Rat” value came out at 1.8 h and the “Peak Plasma Levels” value was 10.9 µg/mL. In series [1] (setting [5]), this molecule registered an IC50 of 1.56 nM. Also, the IC50 in series [2] (setting [5]) is 22800 nM.
As to `Cc1cc(C)c(NS(C)(=O)=O)c(C)c1NC(=O)c1sccc1S(=O)(=O)Nc1onc(C)c1Cl` [N-(4-chloro-3-methyl-5-isoxazolyl)-2-(3-methanesulfonylamino-2,4,6-trimethylphenylaminocarbonyl)thiophene-3-sulfonamide], in series [4], the “POt½ in Rat” value was found to be 5.9 h and the “Peak Plasma Levels” value was found to be 2.6 µg/mL. The IC50 in series [1] (setting [5]) worked out at 1.62 nM. For the same molecule, the IC50 in series [2] (setting [5]) was determined as 67600 nM.
`COc1cccc(OC(=O)c2sccc2S(=O)(=O)Nc2onc(C)c2Br)c1` [N-(4-bromo-3-methyl-5-isoxazolyl)-2-[(3-methoxylphenoxy)carbonyl]thiophene-3-sulfonamide]: the IC50 in series [1] (setting [5]) amounted to 790 nM; in series [2] (setting [5]), 90000 nM.
For `Cc1noc(NS(=O)(=O)c2ccsc2C(=O)Oc2ccc3c(c2)OCO3)c1Br` [N-(4-bromo-3-methyl-5-isoxazolyl)-2-[(3,4-methylenedioxy)phenoxycarbonyl]thiophene-3-sulfonamide], in that order: 7.3 nM and 6000 nM.
`Cc1noc(NS(=O)(=O)c2sccc2-c2ccc(C(C)C)cc2)c1Br` [N-(4-bromo-3-methyl-5-isoxazolyl)-3-(4-iso-propylphenyl)thiophene-2-sulfonamide]: the IC50 in series [1] (setting [6]) amounted to 218 nM; in series [2] (setting [5]), 28300 nM.
Consider `Cc1cc(C)c(CCc2sccc2S(=O)(=O)Nc2onc(C)c2Br)c(C)c1` [N-(4-bromo-3-methyl-5-isoxazolyl)-2-(2,4,6-trimethylphenethyl)thiophene-3-sulfonamide], for which the IC50 in series [1] (setting [5]) is 41.7 nM; in series [2] (setting [5]) it was 1230 nM.
For `CCCc1cc2c(cc1OCc1sccc1S(=O)(=O)Nc1onc(C)c1Br)OCO2` [N-(4-bromo-3-methyl-5-isoxazolyl)-2-{[4,5-(methylenedioxy)-2-propylphenoxy]methyl}thiophene-3-sulfonamide], the IC50 in series [1] (setting [5]) came to 107 nM; in series [2] (setting [5]) it was 407 nM.
Usually inhibition stands for how much of the control response was suppressed. In the case of `Cc1ccc(OC(=O)c2sccc2S(=O)(=O)Nc2onc(C)c2Cl)cc1` [N-(4-chloro-3-methyl-5-isoxazolyl)-2-[(4-methylphenoxy)carbonyl]thiophene-3-sulfonamide], the IC50 in series [1] (setting [5]) is 3200 nM. In addition, the inhibition at 100 µM in series [2] was determined as 43%.
In the case of `Cc1noc(NS(=O)(=O)c2ccsc2NC(=O)Oc2ccc3c(c2)OCO3)c1Br` [N-(4-bromo-3-methyl-5-isoxazolyl)-2-[3,4-(methylenedioxy)phenoxycarbonylamino]thiophene-3-sulfonamide], the IC50 worked out at 87 nM in series [1] (setting [5]) and 5900 nM in series [2] (setting [5]).
Taken in the same sequence, the figures for `Cc1cc(C)c(CNC(=O)c2sccc2S(=O)(=O)Nc2onc(C)c2Cl)c(C)c1CC#N` [N-4-chloro-3-methyl-5-isoxazolyl)-2-(3-cyanomethyl-2,4,6-trimethylbenzylaminocarbonyl)thiophene-3-sulfonamide] were 531 nM and 81500 nM.
For `COc1ccccc1-c1ccsc1S(=O)(=O)Nc1onc(C)c1Br` [N-(4-bromo-3-methyl-5-isoxazolyl)-3-(2-methoxyphenyl)thiophene-2-sulfonamide], in that order: 1710 nM and 59100 nM.
For `Cc1noc(NS(=O)(=O)c2ccsc2COc2ccc3c(c2Cl)OCO3)c1Br` [N-(4-bromo-3-methyl-5-isoxazolyl)-2-[(2-chloro-3,4-methylenedioxy)phenoxymethyl]thiophene-3-sulfonamide], in that order: 13000 nM and 760 nM.
`Cc1noc(NS(=O)(=O)c2ccsc2C(=O)Nc2ccc3c(c2)OCO3)c1Cl` [N-(4-chloro-3-methyl-5-isoxazolyl)-2-[3,4-(methylenedioxy)]phenylaminocarbonyl-3-thiophenesulfonamide]: the IC50 in series [1] (setting [5]) was 7.3 nM; in series [2] (setting [5]) it was 9200 nM.
For the molecule `Cc1ccc(-c2ccc(S(=O)(=O)Nc3noc(C)c3Br)s2)cc1` [N-(4-bromo-5-methyl-3-isoxazolyl)-5-(4-methylphenyl)thiophene-2-sulfonamide], the IC50 turned out to be 7100 nM in series [1] (setting [6]), 15800 nM in series [1] (setting [5]), 359 nM in series [2] (setting [6]) and 250 nM in series [2] (setting [5]).
`CC(=O)OCCOc1cc2c(cc1NC(=O)c1sccc1S(=O)(=O)Nc1onc(C)c1Cl)OCO2` [N-(4-chloro-3-methyl-5-isoxazolyl)-2-[3,4-(methylenedioxy)-6-(2-acetoxyethoxy)]phenylaminocarbonyl]thiophene-3-sulfonamide]: the results for the IC50 in series [1] (setting [5]) and in series [2] (setting [5]) were about 20 nM and about 18000 nM, respectively.
Taken in the same sequence, the figures for `Cc1noc(NS(=O)(=O)c2sccc2Cc2ccccc2)c1Br` [N-(4-bromo-3-methyl-5-isoxazolyl)-3-benzylthiophene-2-sulfonamide] were 1600 nM and 39000 nM.
For `Cc1noc(NS(=O)(=O)c2ccsc2NC(=O)Nc2ccc3c(c2)OCO3)c1Br` [N-(4-bromo-3-methyl-5-isoxazolyl)-2-[(3,4-methylenedioxy)phenylureido]thiophene-3-sulfonamide], the IC50 in series [1] (setting [5]) turned out to be 570 nM; in series [2] (setting [5]) it was 1300 nM.
Taken in the same sequence, the figures for `COc1cc(NC(=O)c2sccc2S(=O)(=O)Nc2onc(C)c2Cl)c(C(N)=O)cc1OC` [N-(4-chloro-3-methyl-5-isoxazolyl)-2-(2-carboxamido-4,5-dimethoxyphenylaminocarbonyl)thiophene-3-sulfonamide] were 11 nM and 61000 nM.
In the case of `Cc1ccc(OC(=O)c2sccc2S(=O)(=O)Nc2onc(C)c2C)c(C)c1` [N-(3,4-dimethyl-5-isoxazolyl)-2-[(2,4-dimethylphenoxy)carbonyl]thiophene-3-sulfonamide], the IC50 in series [1] (setting [5]) is 274 nM. In series [2], the inhibition at 100 µM amounted to 21%.
Turning to `Cc1noc(NS(=O)(=O)c2ccsc2C/C=C/c2ccc3c(c2)OCO3)c1Br` [N-(4-bromo-3-methyl-5-isoxazolyl)-2-[trans-(3,4-methylenedioxy)cinnamyl]thiophene-3-sulfonamide], the results for the IC50 in series [1] (setting [5]) and in series [2] (setting [5]) were 140 nM and 1400 nM, respectively.
For `Cc1onc(NS(=O)(=O)c2c(Cc3ccc4c(c3)OCO4)sc3ccccc23)c1Cl` [N-(4-chloro-5-methyl-3-isoxazolyl)-2-[3,4-(methylenedioxy)benzyl]benzo[b]thiophene-3-sulfonamide], the IC50 is 5.5 nM in series [1] (setting [5]) and 364 nM in series [2] (setting [5]).
Consider `Cc1noc(NS(=O)(=O)c2csc(-c3ccccc3C=O)c2)c1Br` [N-(4-bromo-3-methyl-5-isoxazolyl)-5-(2-formylphenyl)thiophene-3-sulfonamide], for which the IC50 was found to be 3460 nM in series [1] (setting [6]), 12300 nM in series [1] (setting [5]), 529 nM in series [2] (setting [6]) and 1280 ± 710 nM in series [2] (setting [5]).

(Values after US6632829B2, “Sulfonamides and derivatives thereof that modulate the activity of endothelin” (Texas Biotechnology Corp., priority 1996, dated 2003).)
